The values below come from ChEMBL document CHEMBL4316623, “Phosphonodiamidate prodrugs of N-alkoxy analogs of a fosmidomycin surrogate as antimalarial and antitubercular agents” (Bioorg Med Chem Lett, 2019).

Series [1] is described as follows: Selectivity index, ratio of CC50 for human MRC5 cells to IC50 for Mycobacterium tuberculosis H37Ra ATCC 25177 harboring lux gene. It counts as toxicity. The conditions noted are these: read-out: Ratio CC50/IC50.
The subject of series [2] is Mycobacterium tuberculosis. The experiment in a line: Antitubercular activity against Mycobacterium tuberculosis H37Ra ATCC 25177 harboring lux gene measured after 7 days by luminometric method. The note with it: H37Ra ATCC 25177, 168 h. It counts as functional, organism-based.

On to `CCOC(=O)[C@H](CC(C)C)NP(=O)(CCCC(=O)N(C)O)N[C@@H](CC(C)C)C(=O)OCC`, for which, in series [1], the selectivity ratio is above 2.2. For the same molecule, the IC50 – broadly, the midpoint of a concentration-inhibition curve – in series [2] came to 29.4 µM.
The corresponding values for `CCOC(=O)[C@H](CC(C)C)NP(=O)(CCCC(=O)N(C)OCCCCc1ccccc1)N[C@@H](CC(C)C)C(=O)OCC` are 0.14 and 50.3 µM.
The corresponding values for `CCOC(=O)[C@H](CC(C)C)NP(=O)(CCCC(=O)N(C)OCc1ccc(C(C)C)cc1)N[C@@H](CC(C)C)C(=O)OCC` are 0.15 and 49.1 µM.
`CCOC(=O)[C@H](CC(C)C)NP(=O)(CCCC(=O)N(C)OCCCc1ccccc1)N[C@@H](CC(C)C)C(=O)OCC` yielded an IC50 in series [2] above 64 µM.
Take `CCOC(=O)[C@H](CC(C)C)NP(=O)(CCCC(=O)N(C)OCc1ccc(Cl)cc1)N[C@@H](CC(C)C)C(=O)OCC`: the selectivity ratio in series [1] came to 0.37. For the same molecule, in series [2], the IC50 amounted to 49 µM.
Turning to `CCOC(=O)[C@H](CC(C)C)NP(=O)(CCCC(=O)N(C)OCc1ccc2ccccc2c1)N[C@@H](CC(C)C)C(=O)OCC`, the selectivity ratio in series [1] was 0.11. Besides, the IC50 in series [2] worked out at 48.2 µM.
The corresponding values for `CCOC(=O)[C@H](CC(C)C)NP(=O)(CCCC(=O)N(C)OCc1ccc(-c2ccccc2)cc1)N[C@@H](CC(C)C)C(=O)OCC` are 0.17 and 35.2 µM.
`CCOC(=O)[C@H](CC(C)C)NP(=O)(CCCC(=O)N(C)OCc1ccccc1)N[C@@H](CC(C)C)C(=O)OCC` had an IC50 in series [2] above 64 µM.
The same measure, in the same setting: for `NNC(=O)c1ccncc1` [ISONIAZID] the value was 0.21 µM.
